Test [1] concerns the target T1, Prostaglandin G/H synthase 2 (Homo sapiens) (UniProt P35354).
T1 sequence (whole entry): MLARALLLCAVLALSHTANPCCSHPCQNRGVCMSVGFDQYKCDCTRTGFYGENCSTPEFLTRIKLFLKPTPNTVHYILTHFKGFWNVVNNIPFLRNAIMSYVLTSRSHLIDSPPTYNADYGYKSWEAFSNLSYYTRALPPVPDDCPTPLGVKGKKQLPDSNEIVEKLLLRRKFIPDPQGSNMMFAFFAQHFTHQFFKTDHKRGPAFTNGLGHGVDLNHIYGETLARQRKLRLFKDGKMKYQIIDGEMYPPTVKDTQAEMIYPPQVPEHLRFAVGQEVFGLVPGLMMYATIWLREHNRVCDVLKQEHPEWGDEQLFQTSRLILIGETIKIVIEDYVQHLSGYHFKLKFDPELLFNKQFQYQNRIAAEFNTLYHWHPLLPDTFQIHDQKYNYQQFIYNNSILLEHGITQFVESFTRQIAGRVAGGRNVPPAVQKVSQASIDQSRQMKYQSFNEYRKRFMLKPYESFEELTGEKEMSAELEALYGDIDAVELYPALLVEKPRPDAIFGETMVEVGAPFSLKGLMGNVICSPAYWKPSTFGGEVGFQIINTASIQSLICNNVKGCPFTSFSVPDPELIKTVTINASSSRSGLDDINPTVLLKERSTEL
Put plainly: Percent inhibition at 100 nM concentration against human recombinant Prostaglandin G/H synthase 2 cloned and expressed in baculovirus (Sf9).

The target of test [2] is T2, Prostaglandin G/H synthase 1 (Homo sapiens, UniProt P23219). Put plainly: Percent inhibition at 10 uM concentration against human recombinant Prostaglandin G/H synthase 1 cloned and expressed in baculovirus.
For test [3], the target named is T3, Prostaglandin G/H synthase 2 (Homo sapiens, UniProt P35354).
T3 sequence (P35354 whole entry): T1 sequence (whole entry)
Nature of the test: biochemical.
Description: Inhibitory concentration against human recombinant Prostaglandin G/H synthase 2 cloned and expressed in baculovirus (Sf9)

In test [4] the target is T2, Prostaglandin G/H synthase 1. Nature of the test: Percent inhibition at 10 uM concentration against human recombinant Prostaglandin G/H synthase 1 cloned and expressed in baculovirus (Sf9).
Test [5] has the same target. Put plainly: Inhibitory concentration against human recombinant Prostaglandin G/H synthase 1 cloned and expressed in baculovirus (Sf9).

This note sets out measurements from ChEMBL document CHEMBL1134068, “Thiazole analogues of the NSAID indomethacin as selective COX-2 inhibitors” (Bioorg Med Chem Lett, 2001).

T2 sequence (P23219 whole entry): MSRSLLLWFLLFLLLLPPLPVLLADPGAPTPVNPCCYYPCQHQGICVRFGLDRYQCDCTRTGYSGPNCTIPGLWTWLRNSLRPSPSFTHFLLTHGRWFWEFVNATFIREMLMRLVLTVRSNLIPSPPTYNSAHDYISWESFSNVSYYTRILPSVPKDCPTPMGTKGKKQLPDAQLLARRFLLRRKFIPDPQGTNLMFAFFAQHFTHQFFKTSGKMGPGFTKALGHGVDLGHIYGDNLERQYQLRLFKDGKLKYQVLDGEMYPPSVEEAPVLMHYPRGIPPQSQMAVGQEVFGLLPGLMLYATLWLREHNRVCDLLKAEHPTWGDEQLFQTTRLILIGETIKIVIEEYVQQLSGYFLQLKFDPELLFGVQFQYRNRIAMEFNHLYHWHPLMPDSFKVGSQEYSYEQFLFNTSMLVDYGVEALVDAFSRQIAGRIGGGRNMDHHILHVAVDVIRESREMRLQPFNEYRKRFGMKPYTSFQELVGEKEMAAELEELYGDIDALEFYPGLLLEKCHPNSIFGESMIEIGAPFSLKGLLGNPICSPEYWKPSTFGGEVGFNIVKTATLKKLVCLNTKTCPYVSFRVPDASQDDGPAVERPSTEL

For orientation: inhibition means the percentage by which the read-out fell short of the control. `Cc1c(Cc2nc(-c3ccc([N+](=O)[O-])cc3)cs2)c2cc(F)ccc2n1C(=O)c1ccc(Br)cc1`: the inhibition in test [1] came to 40%; in test [2], 1%.

In the case of `COc1ccc2c(c1)c(Cc1nc(-c3ccc(S(C)(=O)=O)cc3)cs1)c(C)n2C(=O)c1ccc(Cl)cc1`, the inhibition was 33% in test [1] and 15% in test [2].

The term IC50 denotes the point on the concentration scale where inhibition reaches its midpoint. As to `COc1ccc2c(c1)c(Cc1nc(-c3ccc(C(=O)O)cc3)cs1)c(C)n2C(=O)c1ccc(Cl)cc1`, the IC50 in test [3] came to 0.12 µM. For the same compound, in test [2], the inhibition stood at 35%.

With `COc1ccc2c(c1)c(Cc1nc(-c3ccc([N+](=O)[O-])cc3)cs1)c(C)n2C(=O)c1ccc(Cl)cc1`, in test [4], the inhibition is 17%.

As for `COc1ccc2c(c1)c(Cc1nc(C(C)C)cs1)c(C)n2C(=O)c1ccc(Cl)cc1`, the inhibition stood at 1% in test [1] and 36% in test [2].

In the case of `Cc1c(Cc2nc(-c3ccc(Br)cc3)cs2)c2cc(F)ccc2n1C(=O)c1ccc(Br)cc1`, the inhibition in test [1] was 25%; in test [2] it was 0%.

With `COc1ccc2c(c1)c(Cc1nc(-c3ccc(-c4ccccc4)cc3)cs1)c(C)n2C(=O)c1ccc(Cl)cc1`, the results for the inhibition in test [4] and in test [1] were 13% and 21%, respectively.

On to `COc1ccc2c(c1)c(Cc1nc(-c3ccc(F)cc3F)cs1)c(C)n2C(=O)c1ccc(Cl)cc1`, for which the values for the inhibition in test [1] and in test [2] were 75% and 12%, respectively.

As for `COc1ccc2c(c1)c(Cc1nc(-c3cccc([N+](=O)[O-])c3)cs1)c(C)n2C(=O)c1ccc(Cl)cc1`, the inhibition in test [1] stood at 85%; in test [2] it was 35%.

As for `COc1ccc2c(c1)c(Cc1nc(-c3ccc(Cl)cc3)cs1)c(C)n2C(=O)c1ccc(Cl)cc1`, the inhibition in test [4] turned out to be 16%.

Take `COc1ccc2c(c1)c(Cc1csc(-c3ccncc3)n1)c(C)n2C(=O)c1ccc(Cl)cc1`: the inhibition in test [1] is 75%; in test [2], 57%.

Regarding `Cc1c(Cc2nc(-c3ccc(Cl)cc3)cs2)c2cc(F)ccc2n1C(=O)c1ccc(Br)cc1`, the inhibition in test [1] worked out at 37%; in test [2], 7%.

As for `COc1ccc2c(c1)c(Cc1nc(-c3cccc(Br)c3)cs1)c(C)n2C(=O)c1ccc(Cl)cc1`, in test [2], the inhibition came to 18%.

As to `Cc1c(Cc2nc(-c3ccc(Br)cc3)cs2)c2cc(Br)ccc2n1C(=O)c1ccc(Br)cc1`, the inhibition turned out to be 7% in test [1] and 13% in test [2].

On to `COc1ccc2c(c1)c(Cc1nc(-c3ccc(Cl)cc3)cs1)c(C)n2C(=O)c1ccc(Br)cc1`, for which the IC50 in test [3] came out at 0.007 µM. For the same compound, the inhibition in test [2] was 2%.

As to `COc1ccc2c(c1)c(Cc1csc(NC(=O)CN)n1)c(C)n2C(=O)c1ccc(Cl)cc1`, the inhibition was 4% in test [1] and 27% in test [2].

For the compound `COc1ccc2c(c1)c(Cc1csc(N)n1)c(C)n2C(=O)c1ccc(Cl)cc1`, the IC50 in test [3] stood at 0.39 µM; in test [5], 15500 µM.

In the case of `Cc1c(Cc2nc(-c3ccc([N+](=O)[O-])cc3)cs2)c2cc(Br)ccc2n1C(=O)c1ccc(Br)cc1`, the inhibition was 7% in test [1] and 1% in test [2].

With `COc1ccc2c(c1)c(Cc1csc(-c3cccnc3)n1)c(C)n2C(=O)c1ccc(Cl)cc1`, the inhibition is 20% in test [1] and 47% in test [2].

Take `COc1ccc2c(c1)c(Cc1csc(-c3ccc(Cl)cc3)n1)c(C)n2C(=O)c1ccc(Cl)cc1`: the inhibition in test [1] was determined as 16%; in test [2], 18%.

Consider `CCOC(=O)c1csc(Cc2c(C)n(C(=O)c3ccc(Cl)cc3)c3ccc(OC)cc23)n1`, for which the inhibition was 40% in test [1] and 1% in test [2].

With `COc1ccc2c(c1)c(Cc1nc(C(=O)O)cs1)c(C)n2C(=O)c1ccc(Cl)cc1`, the inhibition in test [1] turned out to be 2%; in test [2] it was 6%.

In the case of `COc1ccc2c(c1)c(Cc1nc(-c3ccc4ccccc4c3)cs1)c(C)n2C(=O)c1ccc(Cl)cc1`, the inhibition in test [2] turned out to be 11%.

As for `COc1ccc2c(c1)c(Cc1nc(-c3ccc(F)cc3)cs1)c(C)n2C(=O)c1ccc(Cl)cc1`, the inhibition in test [4] amounted to 28%.

Regarding `COc1ccc2c(c1)c(Cc1csc(-c3ccccc3Cl)n1)c(C)n2C(=O)c1ccc(Cl)cc1`, the inhibition in test [1] was determined as 42%; in test [2], 24%.

Take `COc1ccc2c(c1)c(Cc1csc(NC(=O)c3ccncc3)n1)c(C)n2C(=O)c1ccc(Cl)cc1`: the inhibition was found to be 45% in test [1] and 0% in test [2].

In test [3], `COc1ccc2c(c1)c(Cc1nc(-c3ccc(Br)cc3)cs1)c(C)n2C(=O)c1ccc(Br)cc1` yielded an IC50 of 0.03 µM. In addition, the inhibition in test [2] is 3%.

In the case of `COc1ccc2c(c1)c(Cc1nc(-c3ccc(C(=O)O)cc3)cs1)c(C)n2C(=O)c1ccc(Br)cc1`, the inhibition in test [1] amounted to 10%; in test [2], 40%.

`COc1ccc2c(c1)c(Cc1nc(-c3ccc([N+](=O)[O-])cc3)cs1)c(C)n2C(=O)c1ccc(Br)cc1`: in test [3], it took 0.007 µM to reach half-maximal inhibition (IC50). For the same compound, the inhibition in test [2] was determined as 9%.

On to `Cc1c(Cc2nc(-c3ccc(Cl)cc3)cs2)c2cc(Br)ccc2n1C(=O)c1ccc(Br)cc1`, for which the inhibition in test [1] was found to be 9%; in test [2], 4%.

With `CCN(CC)c1ccc(-c2csc(Cc3c(C)n(C(=O)c4ccc(Cl)cc4)c4ccc(OC)cc34)n2)cc1`, the values for the inhibition in test [1] and in test [2] were 36% and 23%, respectively.

Take `COc1ccc2c(c1)c(Cc1nc(C34C[C@H]5C[C@@H](C3)C[C@@H](C4)C5)cs1)c(C)n2C(=O)c1ccc(Cl)cc1`: the inhibition in test [1] came to 6%; in test [2] it was 13%.

As for `COc1ccc2c(c1)c(Cc1nc(-c3ccc(Br)cc3)cs1)c(C)n2C(=O)c1ccc(Cl)cc1`, the inhibition in test [4] amounted to 27%.

`COc1ccc2c(c1)c(Cc1nc(-c3csc4ccccc34)cs1)c(C)n2C(=O)c1ccc(Cl)cc1`: the inhibition in test [2] came out at 20%.
